Key:
[1] = system: Candida albicans ATTC 90028; experiment: Antifungal susceptibility testing, Candida albicans; assay type: cell-based; conditions: Table 1
Protocol: (§1) Using standard susceptibility tests, the compounds of the invention were determined to be active against MRSA, C. neoformans and several other bacteria, fungi and protozoa. More specifically, the antibacterial and antifungal testing was carried out in the following manner. Cryptococcus neoformans ATCC 90113 and MRSA were obtained from the American Type Culture Collection (Manassas. Va.). Several others including Candida albicans ATTC 90028, Aspergillus fumigatus ATCC 90906 and Mycobacterium intracellulare (M. intracellulare) ATCC 23086 were also procured. Susceptibility testing was performed using a modified version of the National Committee for Clinical Laboratory Standards method. M. intracellulare was tested using a modified method of Franzblau, et al., J. Clin. Microbiol., 1998, 36, 362-366. DMSO solutions of samples were serially diluted in saline, and transferred in duplicate to 96 well microplates. Microbial suspensions were diluted in the broth to afford desired colony forming units/mL according to the 0.5 McFarland Standard [C. Albicans: either Saboraud Dextrose broth (SDB) or RPMI 1640, C. neoformans: SDB, A fumigatus: either YM broth (for MICS) or RPMI-1640+5% Alamar Blue.] After adding microbial cultures to the sampled afforded a final volume of 200 μL and final test concentration starting with 20 μg/mL, plates were read prior to and after final incubation using either fluorescence at 544ex/590em (M intracellulare, A. fumigatus) using the Polarstar galaxy reader (Biotek Instruments, Vermont). Growth (saline only), solvent and blank (media only) controls were included on each test plate. Drug controls [Ciprofloxacin (ICN Biomedicals, Ohio) for bacteria and Amphotericin B (ICN Biomedicals, Ohio) for fungi] were included in each assay. Percent growth was calculated and plotted versus test concentration to afford IC50 (sample concentration that affords 50% inhibition or growth of the organism). The minimum inhibitory concentration (MIC) was determined by visually inspecting the plate, and is defined as the lowest test concentration that allows no detectable growth (for Almar Blue assays, no color change from blue to pink).

MRSA = experiment: Antibacterial susceptibility testing, MRSA; assay type: cell-based, methicillin resistant Staphylococcus aureus; conditions: Table 1
Protocol: as §1

[2] = system: Cryptococcus neoformans ATCC 90113; experiment: Antifungal susceptibility testing, Cryptococcus neoformans; assay type: cell-based; conditions: Table 1
Protocol: as §1

[3] = system: Aspergillus fumigatus ATCC 90906; experiment: Antifungal susceptibility testing, Aspergillus fumigatus; assay type: cell-based; conditions: Table 1; Aspergillus fumigatus
Protocol: as §1

Row | SMILES | Ca IC50 [1] | Ca MFC [1] | Ca MIC [1] | MRS IC50 (MRSA) | MRS MFC (MRSA) | MRS MIC (MRSA) | Cn IC50 [2] | Cn MFC [2] | Cn MIC [2] | A fu IC50 [3] | A fu MFC [3] | A fu MIC [3]
1 | COc1ccccc1Sc1cc2ccccc2[n+](CCCCCc2ccccc2)c1.[I-] [XYZ-IV-18] | 3.0 µg/mL | — ((-) = >20 μg/mL) | 10 µg/mL | 0.25 µg/mL | 5.0 µg/mL | 0.63 µg/mL | 0.85 µg/mL | 5.0 µg/mL | 2.5 µg/mL | 0.09 µg/mL | 10 µg/mL | 1.3 µg/mL
2 | Fc1ccccc1Sc1cc2ccccc2[n+](CCCCCc2ccccc2)c1.[I-] [XYZ-IV-19] | 2.5 µg/mL | 20 µg/mL | 10 µg/mL | 0.40 µg/mL | 5.0 µg/mL | 0.63 µg/mL | 0.25 µg/mL | 2.5 µg/mL | 0.63 µg/mL | 0.20 µg/mL | — ((-) = >20 μg/mL) | 0.31 µg/mL
3 | COc1cccc(Sc2cc3ccccc3[n+](CCCCCc3ccccc3)c2)c1.[I-] [XYZ-IV-20] | 7.0 µg/mL | — ((-) = >20 μg/mL) | 20 µg/mL | 0.70 µg/mL | 10 µg/mL | 1.3 µg/mL | 1.5 µg/mL | 10 µg/mL | 2.5 µg/mL | 0.55 µg/mL | — ((-) = >20 μg/mL) | 1.3 µg/mL
4 | Fc1cccc(Sc2cc3ccccc3[n+](CCCCCc3ccccc3)c2)c1.[I-] [XYZ-IV-21] | 3.0 µg/mL | 20 µg/mL | 10 µg/mL | 0.20 µg/mL | 20 µg/mL | 0.63 µg/mL | 0.40 µg/mL | 2.5 µg/mL | 0.63 µg/mL | 0.10 µg/mL | — ((-) = >20 μg/mL) | 0.16 µg/mL
5 | FC(F)(F)c1ccccc1Sc1cc2ccccc2[n+](CCCCCc2ccccc2)c1.[I-] [XYZ-IV-25] | 0.4 µg/mL | 2.5 µg/mL | 1.3 µg/mL | 0.05 µg/mL | 2.5 µg/mL | 0.16 µg/mL | 0.06 µg/mL | 0.63 µg/mL | 0.16 µg/mL | 0.03 µg/mL | 10 µg/mL | 0.08 µg/mL
6 | [I-].[O-][S+](c1ccccc1)c1cc2ccccc2[n+](CCCCCc2ccccc2)c1 (stereo not shown) [XYZ-IV-79] | — ((-) = >20 μg/mL) | — ((-) = >20 μg/mL) | — ((-) = >20 μg/mL) | 1.5 µg/mL | — ((-) = >20 μg/mL) | 5.0 µg/mL |  | — ((-) = >20 μg/mL) | — ((-) = >20 μg/mL) | — ((-) = >20 μg/mL) | — ((-) = >20 μg/mL) | — ((-) = >20 μg/mL)
7 | [I-].[O-][S+](c1ccc(F)cc1)c1cc2ccccc2[n+](CCCCCc2ccccc2)c1 (stereo not shown) [XYZ-IV-84] | — ((-) = >20 μg/mL) | — ((-) = >20 μg/mL) | — ((-) = >20 μg/mL) | 0.80 µg/mL | 20 µg/mL | 5.0 µg/mL |  | — ((-) = >20 μg/mL) | — ((-) = >20 μg/mL) | — ((-) = >20 μg/mL) | — ((-) = >20 μg/mL) | — ((-) = >20 μg/mL)
8 | [I-].[O-][S+](c1cccc(C(F)(F)F)c1)c1cc2ccccc2[n+](CCCCCc2ccccc2)c1 (stereo not shown) [XYZ-IV-87] | — ((-) = >20 μg/mL) | — ((-) = >20 μg/mL) | — ((-) = >20 μg/mL) | 0.25 µg/mL | 20 µg/mL | 1.3 µg/mL | 6.5 µg/mL | 20 µg/mL | 20 µg/mL | — ((-) = >20 μg/mL) | — ((-) = >20 μg/mL) | — ((-) = >20 μg/mL)

From US8288410B2, “3-substituted quinolinium and 7H-indolo[2,3-c]quinolinium salts as new antiinfectives” (Florida Agricultural and Mechanical University, priority 2008, dated 2012)
